In ChEMBL document CHEMBL5321237 (Eur J Med Chem, 2023):
Values after ≈ are worked out from the molar mass of the structure shown. One block for each compound: values may come before it. Active and inactive are the calls of the source. The calls are words filed in the database; no cut-off is given here.

Assays:
[1] = molecular target: T1, Macrophage colony-stimulating factor 1 receptor (Homo sapiens, UniProt P07333); experiment: Inhibition of CSF1R (unknown origin) using FRET-peptide as substrate incubated in presence of ATP by FRET based Z-LYTE assay
T1 sequence (P07333 whole entry): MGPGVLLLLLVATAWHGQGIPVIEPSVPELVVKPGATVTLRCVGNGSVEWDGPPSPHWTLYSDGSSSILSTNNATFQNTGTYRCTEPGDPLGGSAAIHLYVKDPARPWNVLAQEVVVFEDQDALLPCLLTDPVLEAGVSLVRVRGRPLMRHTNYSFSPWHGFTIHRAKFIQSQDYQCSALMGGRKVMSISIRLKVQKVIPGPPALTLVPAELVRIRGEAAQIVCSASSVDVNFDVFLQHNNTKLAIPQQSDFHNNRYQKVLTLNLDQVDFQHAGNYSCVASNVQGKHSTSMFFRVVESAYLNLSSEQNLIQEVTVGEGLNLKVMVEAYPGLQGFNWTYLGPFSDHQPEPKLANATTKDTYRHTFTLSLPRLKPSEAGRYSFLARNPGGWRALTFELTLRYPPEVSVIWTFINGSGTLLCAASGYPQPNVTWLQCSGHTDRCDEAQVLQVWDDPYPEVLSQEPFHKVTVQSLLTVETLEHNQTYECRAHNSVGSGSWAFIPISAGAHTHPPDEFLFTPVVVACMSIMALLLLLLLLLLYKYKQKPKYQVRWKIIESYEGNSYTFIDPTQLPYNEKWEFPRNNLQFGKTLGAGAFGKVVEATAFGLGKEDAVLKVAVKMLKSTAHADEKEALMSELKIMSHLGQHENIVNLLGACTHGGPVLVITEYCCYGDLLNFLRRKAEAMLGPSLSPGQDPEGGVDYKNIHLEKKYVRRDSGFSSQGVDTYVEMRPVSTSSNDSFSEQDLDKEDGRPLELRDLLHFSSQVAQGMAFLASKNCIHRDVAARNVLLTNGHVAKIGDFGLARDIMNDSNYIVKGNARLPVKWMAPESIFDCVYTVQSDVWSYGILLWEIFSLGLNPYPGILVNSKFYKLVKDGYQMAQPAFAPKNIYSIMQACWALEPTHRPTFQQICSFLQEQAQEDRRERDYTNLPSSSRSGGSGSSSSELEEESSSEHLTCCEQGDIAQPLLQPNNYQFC

[2] = Clearance in C57BLKS mouse at 1 mg/kg, iv administered as cassette dose measured for 480 mins by LC-MS analysis; format: ADME, organism-based; settings: in vivo; for clearance: C57BLKS
BaF3 = experiment: Antiproliferative activity against BaF3 cells expressing human CSF1R assessed as suppression of cell proliferation incubated for 72 hrs by Cell Titer Glo assay; format: functional, cell-based; settings: Mus musculus, BaF3, 72 h
[3] = tested on: Osteoclast precursor cell; settings: Homo sapiens, dose 10.0 nM, time > 7.0 day
[4] = Inhibition of […] induced osteoclast differentiation in human Osteoclast precursor cells assessed as suppression of osteoclast formation at 100 to 1000 nM incubated for over 7 days with media replacement for every 3 days by TRITC-phalloidin/Hoechst staining based microscopic analysis relative to control; format: functional, Osteoclast precursor cell; settings: dose 100-1000 nM, time > 7 day
[5] = tested on: Osteoclast precursor cell; settings: Homo sapiens, dose 100-1000 nM, time > 7.0 day
[6] = Observed volume of distribution at steady state in C57BLKS mouse at 1 mg/kg, iv administered as cassette dose measured for 480 mins by LC-MS analysis; format: ADME, organism-based; settings: in vivo, read-out: Vdss
[7] = molecular target: T2, Macrophage colony-stimulating factor 1 receptor (Mus musculus, UniProt P09581); experiment: Inhibition of CSF1-induced CSF1R signalling in mouse BMDM cells assessed as reduction in ERK1/2 phosphorylation preincubated for 30 mins followed by CSF1 addition and measured after 10 mins; format: cell-based
T2 sequence (P09581 whole entry): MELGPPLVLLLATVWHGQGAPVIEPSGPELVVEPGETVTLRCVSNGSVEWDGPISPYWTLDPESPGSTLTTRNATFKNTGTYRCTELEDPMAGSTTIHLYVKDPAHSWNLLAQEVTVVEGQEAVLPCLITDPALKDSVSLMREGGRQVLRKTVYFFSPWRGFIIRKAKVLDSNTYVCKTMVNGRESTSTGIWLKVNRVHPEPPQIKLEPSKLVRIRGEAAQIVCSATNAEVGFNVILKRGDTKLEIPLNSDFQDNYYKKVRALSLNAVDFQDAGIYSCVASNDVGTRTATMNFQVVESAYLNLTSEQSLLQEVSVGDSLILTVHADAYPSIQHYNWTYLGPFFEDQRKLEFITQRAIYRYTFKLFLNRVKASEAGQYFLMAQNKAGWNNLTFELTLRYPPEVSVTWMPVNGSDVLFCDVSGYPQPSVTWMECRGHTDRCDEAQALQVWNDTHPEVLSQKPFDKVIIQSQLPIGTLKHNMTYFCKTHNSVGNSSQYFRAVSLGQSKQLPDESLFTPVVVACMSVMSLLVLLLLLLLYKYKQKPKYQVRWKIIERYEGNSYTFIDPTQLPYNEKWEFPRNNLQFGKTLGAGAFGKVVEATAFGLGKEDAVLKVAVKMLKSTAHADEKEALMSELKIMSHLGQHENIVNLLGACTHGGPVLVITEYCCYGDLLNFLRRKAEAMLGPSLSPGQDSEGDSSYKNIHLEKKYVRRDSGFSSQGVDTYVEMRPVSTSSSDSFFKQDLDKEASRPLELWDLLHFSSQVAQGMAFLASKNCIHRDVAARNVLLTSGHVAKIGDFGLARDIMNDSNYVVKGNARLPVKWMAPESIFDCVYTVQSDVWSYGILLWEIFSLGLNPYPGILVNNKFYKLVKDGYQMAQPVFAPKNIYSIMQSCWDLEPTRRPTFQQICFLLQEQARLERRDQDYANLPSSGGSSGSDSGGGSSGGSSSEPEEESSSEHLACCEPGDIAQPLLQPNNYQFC

[8] = Kinetic aqueous solubility of compound at pH 7.4 at 500 uM incubated for 90 mins by spectrophotometry analysis; format: physicochemical; settings: buffer, read-out: Kinetic_solubility
[9] = Stability in mouse plasma assessed as compound remaining at 5 uM incubated for 1 hr by LC-MS analysis; format: ADME, cell-free; settings: read-out: Stability
[10] = Metabolic stability in human liver microsomes assessed as intrinsic clearance at 3 uM measured upto 50 mins by LC-MS analysis; format: ADME, Microsome
[11] = molecular target: T3, Macrophage colony-stimulating factor 1 receptor (Mus musculus) (UniProt P09581); experiment: Inhibition of CSF1-induced CSF1R signalling in mouse BMDM cells assessed as reduction in ERK1/2 phosphorylation by measuring fold change preincubated for 30 mins followed by CSF1 addition and measured after 10 mins relative to pexidartinib; format: cell-based; settings: time 40.0 min
T3 sequence (whole entry): T2 sequence (P09581 whole entry)

[12] = molecular target: Epidermal growth factor receptor (Homo sapiens, UniProt P00533); experiment: Inhibition of EGFR (unknown origin) in presence of ATP
Epidermal growth factor receptor, sequence (P00533 whole entry): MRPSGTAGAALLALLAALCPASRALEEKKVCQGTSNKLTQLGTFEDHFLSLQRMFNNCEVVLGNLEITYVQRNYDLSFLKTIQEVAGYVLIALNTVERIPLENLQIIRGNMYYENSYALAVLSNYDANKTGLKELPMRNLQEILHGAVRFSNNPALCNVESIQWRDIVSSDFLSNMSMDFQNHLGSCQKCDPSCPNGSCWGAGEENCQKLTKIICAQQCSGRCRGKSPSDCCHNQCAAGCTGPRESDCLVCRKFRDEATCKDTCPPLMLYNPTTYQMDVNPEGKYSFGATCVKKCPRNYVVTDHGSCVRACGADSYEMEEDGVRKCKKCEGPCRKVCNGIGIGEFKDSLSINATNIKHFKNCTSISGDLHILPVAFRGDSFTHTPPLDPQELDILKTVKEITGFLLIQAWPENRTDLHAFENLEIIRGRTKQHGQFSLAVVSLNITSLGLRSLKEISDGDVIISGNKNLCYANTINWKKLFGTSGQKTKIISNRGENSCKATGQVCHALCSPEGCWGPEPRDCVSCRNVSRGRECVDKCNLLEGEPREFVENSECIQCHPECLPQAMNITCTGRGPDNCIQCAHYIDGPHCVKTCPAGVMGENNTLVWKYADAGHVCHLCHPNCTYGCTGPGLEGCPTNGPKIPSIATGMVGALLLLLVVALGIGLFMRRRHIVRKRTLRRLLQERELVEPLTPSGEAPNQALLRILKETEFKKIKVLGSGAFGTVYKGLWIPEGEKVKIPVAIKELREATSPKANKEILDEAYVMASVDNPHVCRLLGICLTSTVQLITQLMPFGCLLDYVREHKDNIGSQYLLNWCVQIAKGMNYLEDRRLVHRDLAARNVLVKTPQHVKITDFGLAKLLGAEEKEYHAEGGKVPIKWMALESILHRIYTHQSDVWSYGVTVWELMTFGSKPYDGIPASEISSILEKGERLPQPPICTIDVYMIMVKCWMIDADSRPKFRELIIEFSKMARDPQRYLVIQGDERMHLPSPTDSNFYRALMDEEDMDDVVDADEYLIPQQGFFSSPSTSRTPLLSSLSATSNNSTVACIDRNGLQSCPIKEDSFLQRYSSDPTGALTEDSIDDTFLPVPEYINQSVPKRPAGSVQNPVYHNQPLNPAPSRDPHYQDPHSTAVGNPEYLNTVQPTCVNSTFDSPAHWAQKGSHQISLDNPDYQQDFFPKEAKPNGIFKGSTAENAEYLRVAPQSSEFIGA

[13] = Metabolic stability in mouse liver microsomes assessed as intrinsic clearance at 3 uM measured upto 50 mins by LC-MS analysis; format: ADME, Microsome
[14] = Microsomal stability mouse liver microsomes assessed as compound remaining at 5 uM incubated for 1 hr by LC-MS analysis; format: ADME, Microsome; settings: read-out: Stability
[15] = Half life in C57BLKS mouse at 1 mg/kg, iv administered as cassette dose measured for 480 mins by LC-MS analysis; format: ADME, organism-based; settings: in vivo
[16] = Metabolic stability in cryopreserved pooled ICR/CD-1 mouse hepatocytes assessed as intrinsic clearance measured per 10^6 cells at 3 uM measured for 60 mins by LC-MS/MS analysis; format: ADME, cell-based, Hepatocyte; settings: read-out: CLH
[17] = molecular target: T1, Macrophage colony-stimulating factor 1 receptor; experiment: Binding affinity to non-autoinhibited form of CSF1R (unknown origin) assessed as dissociation constant incubated for 1 hr by qPCR based Hill equation analysis
[18] = Plasma protein binding in mouse assessed as bound fraction at 5 uM incubated for 6 hrs by equilibrium dialysis based LC-MS analysis; format: ADME, cell-free; settings: read-out: PPB (converted)
[19] = molecular target: T1, Macrophage colony-stimulating factor 1 receptor; experiment: Binding affinity to autoinhibited form of CSF1R (unknown origin) assessed as dissociation constant incubated for 1 hr by qPCR based Hill equation analysis
[20] = molecular target: T1, Macrophage colony-stimulating factor 1 receptor; experiment: Selectivity index, ratio of Kd for non-autoinhibited form of CSF1R (unknown origin) to Kd for autoinhibited form of CSF1R (unknown origin)

SMILES: CN(Cc1ccncc1)c1ncnc2[nH]c(-c3ccc(CO)cc3)nc12
IC50 [1]: 2.2 nM

SMILES: Cc1ccc(CN(C)c2ncnc3[nH]c(-c4ccc(CO)cc4)nc23)cc1
IC50 [1]: 11 nM

SMILES: CN(CC1CCN(Cc2ccccc2)CC1)c1ncnc2[nH]c(-c3ccc(CO)cc3)nc12
CLint [10]: 22.1 µL/min/mg
IC50 [7]: > 300 nM
solubility kinetic at […], 500 µM [8]: 33.5 µM (≈ 14.8 µg/mL)

SMILES: CN(Cc1ccccc1)c1ncnc2[nH]c(-c3ccccc3)nc12
IC50 [1]: 2.7 nM

SMILES: CN(Cc1ccccc1)c1ncnc2[nH]c(-c3ccc(CO)cc3)nc12
CLint [10]: 14.4 µL/min/mg
IC50 [12]: 109 nM
CLint [13]: 57.8 µL/min/mg
fold change (FC) [11]: 2.9
IC50 [7]: 330 nM

SMILES: Cc1cccc(CN(C)c2ncnc3[nH]c(-c4ccc(CO)cc4)nc23)c1
IC50 [1]: 1.3 nM

SMILES: CN(CC1CCOCC1)c1ncnc2[nH]c(-c3ccc(CO)cc3)nc12
CL ([2]; iv, 1 mg/kg, 8 h): 3300 mL/min/kg
remaining at 1 h, 5 µM [14]: 83%
IC50 (BaF3): 3100 nM
CLint [10]: 15.8 µL/min/mg
inhibition [3]: Active
inhibition (INH) [4]: 100%
inhibition [5]: Active
half-life [15]: 24 min
CLint [13]: 58.7 µL/min/mg
hepatocyte CLint at 3 µM [16]: 148 µL/min/1e6 cells
Vd [6]: 80 L/kg
Kd [17]: 80 nM
IC50 [7]: 83 nM
solubility kinetic at […], 500 µM [8]: 55.4 µM (≈ 19.6 µg/mL)
remaining at 1 h, 5 µM [9]: 100%
fraction unbound at 6 h, 5 µM [18]: 0.44
Kd [19]: 4.5 nM

SMILES: CN(CC1CCCCO1)c1ncnc2[nH]c(-c3ccc(CO)cc3)nc12 (stereo unspecified)
CLint [10]: 24.2 µL/min/mg
IC50 [7]: > 300 nM
solubility kinetic at […], 500 µM [8]: 9.2 µM (≈ 3.25 µg/mL)

Now from value to compound, other results behind:

IC50 [1]: 2.9 nM
SMILES: CN(Cc1cccs1)c1ncnc2[nH]c(-c3ccc(CO)cc3)nc12

clearance [2]: 0.833 mL/min/kg
IC50 (BaF3): 60 nM
Vd [6]: 0.4 L/kg
IC50 [7]: 100 nM
solubility kinetic at […], 500 µM [8]: 20.7 µM (≈ 8.65 µg/mL)
remaining at 1 h, 5 µM [9]: 100%
SMILES: FC(F)(F)c1ccc(CNc2ccc(Cc3c[nH]c4ncc(Cl)cc34)cn2)cn1 [PEXIDARTINIB]
inhibition [3]: Active
inhibition (INH) [4]: 100%
inhibition [5]: Active

CLint [10]: 3.6 µL/min/mg
IC50 [7]: > 300 nM
solubility kinetic at […], 500 µM [8]: 469 µM (≈ 172 µg/mL)
SMILES: CN1CCCC(CN(C)c2ncnc3[nH]c(-c4ccc(CO)cc4)nc23)C1 (stereo unspecified)

CLint [10]: 22.3 µL/min/mg
fold change (FC) [11]: 0.9
IC50 [1]: 1 nM
IC50 [7]: 100 nM
solubility kinetic at […], 500 µM [8]: 0.5 µM (≈ 0.176 µg/mL)
SMILES: CN(CC1CCCCC1)c1ncnc2[nH]c(-c3ccc(CO)cc3)nc12

CLint [10]: 20.1 µL/min/mg
IC50 [7]: > 300 nM
solubility kinetic at […], 500 µM [8]: 131 µM (≈ 44.5 µg/mL)
SMILES: CN(CC1CCOC1)c1ncnc2[nH]c(-c3ccc(CO)cc3)nc12 (stereo unspecified)

CLint [10]: 33.2 µL/min/mg
IC50 [7]: > 300 nM
solubility kinetic at […], 500 µM [8]: 39.7 µM (≈ 13.5 µg/mL)
SMILES: CN(CC1CCCO1)c1ncnc2[nH]c(-c3ccc(CO)cc3)nc12 (stereo unspecified)

IC50 [1]: 7.2 nM
SMILES: CN(Cc1ccccn1)c1ncnc2[nH]c(-c3ccc(CO)cc3)nc12

clearance [2]: 317 mL/min/kg
remaining at 1 h, 5 µM [14]: 97.2%
IC50 (BaF3): 1500 nM
CLint [10]: 14.7 µL/min/mg
half-life [15]: 24 min
CLint [13]: 30.2 µL/min/mg
hepatocyte CLint at 3 µM [16]: 22 µL/min/1e6 cells
fold change (FC) [11]: 0.7
Vd [6]: 9 L/kg
Kd [17]: 36 nM
IC50 [7]: 106 nM
solubility kinetic at […], 500 µM [8]: 37.5 µM (≈ 13.8 µg/mL)
remaining at 1 h, 5 µM [9]: 97.9%
Ratio [20]: 72
fraction unbound at 6 h, 5 µM [18]: 0.366
Kd [19]: 0.5 nM
SMILES: CN(CC1CCOCC1)c1ncnc2[nH]c(-c3ccc(CCO)cc3)nc12
inhibition [3]: Active
inhibition (INH) [4]: 100%
inhibition [5]: Active
